Test results taken from patent US5674872A, “Treatment of ovarian cancer” (SmithKline Beecham Corporation, priority 1995, dated 1997).

Columns and labels:
[1] = Stability of diluted topotecan solutions in plastic bags at room temperature; type: physicochemical
Description: Solution Preparation--When the 5 mg vial is reconstituted with 2 ml of Sterile Water for Injection, USP, each ml will contain 2.5 mg of topotecan as the base and 50 mg of mannitol, USP. Topotecan must not be diluted or mixed with buffered solutions because of solubility and stability considerations.
Stability--Shelf life surveillance of the intact vials is ongoing. Because the single-use lyophilized dosage form contains no antibacterial preservatives, it is advised that the reconstituted solution be discarded eight hours after initial entry into the vial. Futher dilutions of the reconstituted solution to concentrations of 0.02 mg/ml and 0.1 mg.ml in 5% Dextrose Injection, USP, ("D5W") or 0.9% Sodium Chloride Injection, USP, ("NS") in plastic bags stored at room temperature yielded the following stability results: […]

[2] = Stability of diluted topotecan in a hang-bag; type: physicochemical; conditions: 24 hours
Description: Topotecan diluted in saline (10 ug/ml or 500 ug/ml) or dextrose (6.7 ug/ml or 330 ug/ml) is stable in a hang-bag for 24 hours with at least 95% recovery.

ovarian cancer = test: Treatment of a human patient with ovarian cancer, tumor size regression evaluated by CAT scan; type: in vivo; conditions: one platinum-refractory patient, 1.5 mg/m^2/day i.v. for five consecutive days, sustained at least until the tenth treatment
Description: One human patient with ovarian cancer, who was refractory to two previous platinum-containing regimens (i.e., cisplatin-cyclophosphamide combination regimen and treatment with single agent carboplatin), received a course of therapy comprising intravenous administration of 1.5 mg of topotecan/m^2 of body surface area per day for five consecutive days. This course of therapy was repeated […] nine more times to date at twenty-one day intervals (from the date of initiation of therapy) for a total of ten treatments. Tumor size regression was evaluated by CAT (computerized axial tomography) scan. […] At least until the tenth treatment, this clinically significant response was sustained, i.e., a greater than fifty percent (50%) tumor size regression was obtained.

In the case of `CC[C@@]1(O)C(=O)OCc2c1cc1n(c2=O)Cc2cc3c(CN(C)C)c(O)ccc3nc2-1` [Topotecan, (S)-10[(dimethylamino)methyl]-4-ethyl-4,9-dihydroxy-1 H-pyrano[3',4':6,7]indolizino[1,2-b]quinolone-3,14(4 H,12 H)-dione], the “Percentage of Initial Topotecan Remaining in Solution” value ([1]; D5W, 0.02 mg/ml, 0 hrs) is reported as 100.00%, the “Percentage of Initial Topotecan Remaining in Solution” value ([1]; D5W, 0.02 mg/ml, 6 hrs) is reported as 99.29% and the “Percentage of Initial Topotecan Remaining in Solution” value ([1]; D5W, 0.02 mg/ml, 24 hrs) is reported as 102.30%. For the same molecule, the “Percentage of Initial Topotecan Remaining in Solution” value ([1]; D5W, 0.02 mg/ml, 48 hrs) was 101.98%, the “Percentage of Initial Topotecan Remaining in Solution” value ([1]; D5W, 0.1 mg/ml, 0 hrs) was 100.00% and the “Percentage of Initial Topotecan Remaining in Solution” value ([1]; D5W, 0.1 mg/ml, 6 hrs) was 99.68%. The “Percentage of Initial Topotecan Remaining in Solution” value ([1]; D5W, 0.1 mg/ml, 24 hrs) was 98.16%, the “Percentage of Initial Topotecan Remaining in Solution” value ([1]; D5W, 0.1 mg/ml, 48 hrs) was 97.91% and the “Percentage of Initial Topotecan Remaining in Solution” value ([1]; NS, 0.02 mg/ml, 0 hrs) was 100.00%. For the same molecule, the “Percentage of Initial Topotecan Remaining in Solution” value ([1]; NS, 0.02 mg/ml, 6 hrs) was 98.58%, the “Percentage of Initial Topotecan Remaining in Solution” value ([1]; NS, 0.02 mg/ml, 24 hrs) was 96.01% and the “Percentage of Initial Topotecan Remaining in Solution” value ([1]; NS, 0.02 mg/ml, 48 hrs) was 102.03%. For the same molecule, the “Percentage of Initial Topotecan Remaining in Solution” value ([1]; NS, 0.1 mg/ml, 0 hrs) was 100.00%, the “Percentage of Initial Topotecan Remaining in Solution” value ([1]; NS, 0.1 mg/ml, 6 hrs) was 97.71% and the “Percentage of Initial Topotecan Remaining in Solution” value ([1]; NS, 0.1 mg/ml, 24 hrs) was 98.30%. The “Percentage of Initial Topotecan Remaining in Solution” value ([1]; NS, 0.1 mg/ml, 48 hrs) was 98.35%, the “recovery (stable in a hang-bag)” value ([2]; dextrose, 6.7 ug/ml or 330 ug/ml) was “at least 95%” and the “recovery (stable in a hang-bag)” value ([2]; saline, 10 ug/ml or 500 ug/ml) was “at least 95%”. The “tumor size regression, sustained” value (ovarian cancer) was > 50%.
